Literature values, collected in patent US20050239743A1, “Compositions and methods to inhibit restenosis” (Pro-Pharmaceuticals, Inc., priority 2004, published 2005).

Conditions: long-term use 10,000 units/day, s.c., following coronary angioplasty

For heparin, the abnormal hemorrhage supervening is listed as 41% and the “coronary restenosis, share of the cases” value (control restenosis value 33%) is listed as 82%.
